Source: patent US9637453B2, “3-spirocyclic-6-hydroxamic acid tetralins as HDAC inhibitors” (Forma Therapeutics, Inc., priority 2015, dated 2017)

Tests used:
[1] = target: T1, Full length human recombinant HDAC6 (Homo sapiens, UniProt Q9UBN7); assay: In vitro histone deacetylase assay, enzymatic HDAC6 (electrophoretic mobility shift assay); type: biochemical; conditions: 1 nM HDAC6; 2 μM peptide substrate FAM-RHKK(Ac)—NH2; 25° C.; 12 concentrations; read-out: HDAC6 Activity Range (IC50)
T1 construct: Full length human recombinant HDAC6 and HDAC11 proteins were expressed in baculoviral system
T1 sequence (Q9UBN7 1-1215): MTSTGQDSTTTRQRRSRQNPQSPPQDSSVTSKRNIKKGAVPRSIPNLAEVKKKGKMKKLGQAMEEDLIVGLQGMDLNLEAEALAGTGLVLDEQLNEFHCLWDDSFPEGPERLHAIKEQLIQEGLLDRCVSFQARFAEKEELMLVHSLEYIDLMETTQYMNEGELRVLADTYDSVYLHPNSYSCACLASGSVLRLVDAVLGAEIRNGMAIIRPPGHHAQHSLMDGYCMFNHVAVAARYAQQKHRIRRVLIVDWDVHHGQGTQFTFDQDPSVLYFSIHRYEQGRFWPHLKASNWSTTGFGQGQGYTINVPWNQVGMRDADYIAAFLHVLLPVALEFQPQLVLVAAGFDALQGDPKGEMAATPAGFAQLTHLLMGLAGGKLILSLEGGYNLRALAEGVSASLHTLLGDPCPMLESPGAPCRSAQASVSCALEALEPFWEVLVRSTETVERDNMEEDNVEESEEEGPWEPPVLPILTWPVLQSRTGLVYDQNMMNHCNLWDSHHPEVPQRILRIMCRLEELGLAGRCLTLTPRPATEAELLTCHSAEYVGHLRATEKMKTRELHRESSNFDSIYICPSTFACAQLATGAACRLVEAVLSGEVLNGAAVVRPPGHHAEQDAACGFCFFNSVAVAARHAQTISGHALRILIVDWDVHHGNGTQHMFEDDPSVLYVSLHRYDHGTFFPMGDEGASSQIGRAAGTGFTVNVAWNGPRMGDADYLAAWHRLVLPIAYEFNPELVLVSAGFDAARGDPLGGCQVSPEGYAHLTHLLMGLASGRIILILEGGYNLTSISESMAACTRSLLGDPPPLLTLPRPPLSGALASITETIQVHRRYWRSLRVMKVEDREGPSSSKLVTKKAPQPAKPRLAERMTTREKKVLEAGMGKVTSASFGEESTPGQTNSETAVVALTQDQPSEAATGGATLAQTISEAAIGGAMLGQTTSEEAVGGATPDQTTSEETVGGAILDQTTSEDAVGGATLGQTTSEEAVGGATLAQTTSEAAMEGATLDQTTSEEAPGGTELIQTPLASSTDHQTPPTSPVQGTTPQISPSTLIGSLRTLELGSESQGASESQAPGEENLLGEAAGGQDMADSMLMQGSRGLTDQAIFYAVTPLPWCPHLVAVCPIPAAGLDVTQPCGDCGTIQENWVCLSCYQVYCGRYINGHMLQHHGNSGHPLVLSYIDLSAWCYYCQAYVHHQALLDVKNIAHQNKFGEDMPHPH
Description: (§1) The enzymatic HDAC6 and HDAC11 assays were performed using electrophoretic mobility shift assay. Full length human recombinant HDAC6 and HDAC11 proteins were expressed in baculoviral system and purified by affinity chromatography. The enzymatic reactions were assembled in 384 well plates in a total volume of 25 μL in a reaction buffer composing: 100 mM HEPES, pH 7.5, 25 mM KCl, 0.1% bovine serum albumin, 0.01% Triton X-100, 1% DMSO (from compounds) 2 μM of the fluorescently labeled peptide substrate and enzyme. The enzymes were added at a final concentration of 1 nM for HDAC6, and 10 nM for HDAC11. The peptide substrate FAM-RHKK(Ac)—NH2 was used for HDAC6, and FAM-RHKK(tri-fluor-Ac)—NH2 for HDAC11. The compounds were tested at 12 concentrations spaced by 3× dilution intervals. Negative control samples (0%-inhibition in the absence of inhibitor) and positive control samples (100%-inhibition) were assembled in replicates of four in each assay plate. The reactions were incubated at 25° C. and quenched by the addition of 45 μL of termination buffer (100 mM HEPES, pH 7.5, 0.01% Triton X-100, 0.05% SDS).
(§2) The terminated assay plates were analyzed on LabChip® 3000 microfluidic electrophoresis instrument (Perkin Elmer/Caliper Life Sciences). The fluorescence intensity of the electrophoretically separated de-acetylated product and substrate peptide was measured. Activity in each sample was determined as the product to sum ratio (PSR): P/(S+P), where P is the peak height of the product peptide and S is the peak height of the substrate peptide. Percent inhibition (Pinh) is determined using following equation:
(§3) Pinh=(PSR0%−PSRinh)/(PSR0%−PSR100%)*100, where PSRinh is the product sum ratio in the presence of inhibitor, PSR0% is the average product sum ration in the absence of inhibitor and PSR100% is the average product sum ratio in 100%-inhibition control samples. The IC50 values of inhibitors were determined by fitting the %-inhibition curves with 4 parameter dose-response model using XLfit 4 software.
(§4) As set forth in Table-26 and Table-27, below, IC5o values are defined as follows: IC50≦0.1 μM (+++); IC50>0.1 μM and ≦0.5 μM (++); IC50>0.5 μM (+).

[2] = target: T2, Full length human recombinant HDAC11 (Homo sapiens, UniProt Q96DB2); assay: In vitro histone deacetylase assay, enzymatic HDAC11 (electrophoretic mobility shift assay); type: biochemical; conditions: 10 nM HDAC11; 2 μM peptide substrate FAM-RHKK(tri-fluor-Ac)—NH2; 25° C.; 12 concentrations; read-out: HDAC11 Activity Range (IC50)
T2 construct: Full length human recombinant HDAC6 and HDAC11 proteins were expressed in baculoviral system
T2 sequence (Q96DB2 1-347): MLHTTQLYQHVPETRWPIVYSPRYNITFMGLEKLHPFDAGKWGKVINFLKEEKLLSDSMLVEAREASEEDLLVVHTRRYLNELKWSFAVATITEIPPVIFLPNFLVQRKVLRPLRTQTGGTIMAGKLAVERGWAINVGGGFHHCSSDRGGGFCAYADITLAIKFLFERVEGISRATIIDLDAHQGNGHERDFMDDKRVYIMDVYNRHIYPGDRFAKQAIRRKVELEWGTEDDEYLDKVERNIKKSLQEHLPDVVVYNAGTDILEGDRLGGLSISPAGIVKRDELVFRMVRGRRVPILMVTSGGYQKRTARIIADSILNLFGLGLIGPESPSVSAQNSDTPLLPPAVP
Description: as §1, §2, §3, §4

IC50 [1] [nM] | IC50 [2] [nM] | Compound
≤ 100 | > 500 | COc1ccc(S(=O)(=O)N2CCC3(CCc4ccc(C(=O)NO)cc4C3)C2)cc1 (centres unmarked) [Compound I-2, N-hydroxy-1′-((4-methoxyphenyl)sulfonyl)-3,4-dihydro-1H-spiro[naphthalene-2,3′-pyrrolidine]-7-carboxamide]
100 to 500 | > 500 | COc1ccc(CN2CCC3(CCc4ccc(C(=O)NO)cc4C3)C2)cc1 (centres unmarked) [Compound I-3, N-hydroxy-1′-(4-methoxybenzyl)-3,4-dihydro-1H-spiro[naphthalene-2,3′-pyrrolidine]-7-carboxamide]
≤ 100 | > 500 | O=C(NO)c1ccc2c(c1)CC1(CC2)CCN(C(=O)C2CCCCC2)C1 (centres unmarked) [Compound I-4, 1′-(cyclohexanecarbonyl)-N-hydroxy-3,4-dihydro-1H-spiro[naphthalene-2,3′-pyrrolidine]-7-carboxamide]
≤ 100 | > 500 | O=C(NO)c1ccc2c(c1)CC1(CC2)CCN(C2CCCCC2)C1 (centres unmarked) [Compound I-5, 1′-cyclohexyl-N-hydroxy-3,4-dihydro-1H-spiro[naphthalene-2,3′-pyrrolidine]-7-carboxamide]
≤ 100 | 100 to 500 | O=C(NO)c1ccc2c(c1)CC1(CC2)CCN(C(=O)Nc2ccccc2)C1 (centres unmarked) [Compound I-6, N7-hydroxy-N1′-phenyl-3,4-dihydro-1H-spiro[naphthalene-2,3′-pyrrolidine]-1′,7-dicarboxamide]
≤ 100 | > 500 | O=C(NO)c1ccc2c(c1)CC1(CC2)CCN(S(=O)(=O)C2CCCCC2)C1 (centres unmarked) [Compound I-7, 1′-(cyclohexylsulfonyl)-N-hydroxy-3,4-dihydro-1H-spiro[naphthalene-2,3′-pyrrolidine]-7-carboxamide]
100 to 500 | > 500 | O=C(NO)c1ccc2c(c1)CC1(CCNC1)CC2 (centres unmarked) [Compound I-8, N-hydroxy-3,4-dihydro-1H-spiro[naphthalene-2,3′-pyrrolidine]-7-carboxamide]
≤ 100 | > 500 | O=C(NO)c1ccc2c(c1)C[C@@]1(CC2)CCN(c2ccccc2)C1 [Compound I-16, (S)—N-hydroxy-1′-phenyl-3,4-dihydro-1H-spiro[naphthalene-2,3′-pyrrolidine]-7-carboxamide]
≤ 100 | > 500 | O=C(NO)c1ccc2c(c1)C[C@]1(CC2)CCN(c2ccccc2)C1 [Compound I-17, (R)—N-hydroxy-1′-phenyl-3,4-dihydro-1H-spiro[naphthalene-2,3′-pyrrolidine]-7-carboxamide]
≤ 100 |  | O=C(NO)c1ccc2c(c1)C[C@@]1(CC2)CC(=O)N(C2CCC2)C1 [Compound I-151, (S)-1′-cyclobutyl-N-hydroxy-5′-oxo-3,4-dihydro-1H-spiro[naphthalene-2,3′-pyrrolidine]-7-carboxamide]
≤ 100 |  | O=C(NO)c1ccc2c(c1)C[C@]1(CC2)CC(=O)N(C2CCCC2)C1 [Compound I-152, (R)-1′-cyclopentyl-N-hydroxy-5′-oxo-3,4-dihydro-1H-spiro[naphthalene-2,3′-pyrrolidine]-7-carboxamide]
≤ 100 |  | O=C(NO)c1ccc2c(c1)C[C@@]1(CC2)CC(=O)N(C2CCCC2)C1 [Compound I-153, (S)-1′-cyclopentyl-N-hydroxy-5′-oxo-3,4-dihydro-1H-spiro[naphthalene-2,3′-pyrrolidine]-7-carboxamide]

The next lines start with the compound.

Compound | IC50 [1] [nM] | IC50 [2] [nM]
COc1ccc(C(=O)N2CCC3(CCc4ccc(C(=O)NO)cc4C3)C2)cc1 (centres unmarked) [Compound I-1, N-hydroxy-1′-(4-methoxybenzoyl)-3,4-dihydro-1H-spiro[naphthalene-2,3′-pyrrolidine]-7-carboxamide] | ≤ 100 | > 500
CN1CCC2(CCc3ccc(C(=O)NO)cc3C2)C1 (centres unmarked) [Compound I-9, N-hydroxy-1′-methyl-3,4-dihydro-1H-spiro[naphthalene-2,3′-pyrrolidine]-7-carboxamide] | 100 to 500 | > 500
O=CN1CCC2(CCc3ccc(C(=O)NO)cc3C2)C1 (centres unmarked) [Compound I-10, 1′-formyl-N-hydroxy-3,4-dihydro-1H-spiro[naphthalene-2,3′-pyrrolidine]-7-carboxamide] | ≤ 100 | > 500
CC(C)N1CCC2(CCc3ccc(C(=O)NO)cc3C2)C1 (centres unmarked) [Compound I-11, N-hydroxy-1′-isopropyl-3,4-dihydro-1H-spiro[naphthalene-2,3′-pyrrolidine]-7-carboxamide] | 100 to 500 | > 500
CC(=O)N1CCC2(CCc3ccc(C(=O)NO)cc3C2)C1 (centres unmarked) [Compound I-12, 1′-acetyl-N-hydroxy-3,4-dihydro-1H-spiro[naphthalene-2,3′-pyrrolidine]-7-carboxamide] | ≤ 100 | > 500
CS(=O)(=O)N1CCC2(CCc3ccc(C(=O)NO)cc3C2)C1 (centres unmarked) [Compound I-13, N-hydroxy-1′-(methylsulfonyl)-3,4-dihydro-1H-spiro[naphthalene-2,3′-pyrrolidine]-7-carboxamide] | ≤ 100 | > 500
COc1cccc(CN2CCC3(CCc4ccc(C(=O)NO)cc4C3)C2)c1 (centres unmarked) [Compound I-14, N-hydroxy-1′-(3-methoxybenzyl)-3,4-dihydro-1H-spiro[naphthalene-2,3′-pyrrolidine]-7-carboxamide] | ≤ 100 | > 500
COc1ccccc1CN1CCC2(CCc3ccc(C(=O)NO)cc3C2)C1 (centres unmarked) [Compound I-15, N-hydroxy-1′-(2-methoxybenzyl)-3,4-dihydro-1H-spiro[naphthalene-2,3′-pyrrolidine]-7-carboxamide] | ≤ 100 | > 500
O=C(NO)c1ccc2c(c1)C[C@]1(CC2)CC(=O)N(C2CCC2)C1 [Compound I-150, (R)-1′-cyclobutyl-N-hydroxy-5′-oxo-3,4-dihydro-1H-spiro[naphthalene-2,3′-pyrrolidine]-7-carboxamide] | ≤ 100 | 
